Reference: US12692261B2, “Substituted heterocyclic compounds and therapeutic uses thereof” (Bayer Aktiengesellschaft, priority 2020, dated 2026)
Where “and” joins values, the source holds several entries; their conditions need not be identical. Identical values can stand only once. Like-named read-outs stand apart in the source and are kept apart here.

How the values were obtained:
[1] = biological target: T1, wild-type Epidermal Growth Factor Receptor (EGFR) (Homo sapiens, UniProt P00533); test: WT-EGFR Kinase Assay (TR-FRET, 2 mM ATP); assay type: biochemical
T1 construct: a fragment of human EGFR (amino acids R669 to A1210); made in house; host or cells: Sf9 insect cells
T1 sequence (P00533 669-1210): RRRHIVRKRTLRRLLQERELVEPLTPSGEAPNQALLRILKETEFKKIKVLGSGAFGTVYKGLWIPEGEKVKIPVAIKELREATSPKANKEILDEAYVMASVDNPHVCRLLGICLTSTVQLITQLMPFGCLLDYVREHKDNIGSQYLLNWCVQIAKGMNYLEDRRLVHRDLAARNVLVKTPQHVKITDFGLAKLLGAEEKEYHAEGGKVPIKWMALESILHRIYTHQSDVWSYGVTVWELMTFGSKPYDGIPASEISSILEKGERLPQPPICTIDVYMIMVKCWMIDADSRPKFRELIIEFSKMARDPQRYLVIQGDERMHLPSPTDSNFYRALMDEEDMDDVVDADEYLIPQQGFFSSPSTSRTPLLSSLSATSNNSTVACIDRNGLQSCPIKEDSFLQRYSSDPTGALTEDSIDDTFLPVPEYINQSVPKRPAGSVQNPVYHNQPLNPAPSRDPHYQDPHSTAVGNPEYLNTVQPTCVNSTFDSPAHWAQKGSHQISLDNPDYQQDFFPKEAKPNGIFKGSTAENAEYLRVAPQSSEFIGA
How it was run: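 GST-fused human EGFR fragment (R669-A1210) from Sf9 cells, typically 7.6 pg/μL, pre-incubated with compound 15 min at 22° C in Hepes pH 7.0 buffer with MgCl2, DTT and vanadate; biotinylated peptide substrate. After EDTA stop, phosphopeptide detected by TR-FRET (anti-phosphotyrosine Tb-cryptate/streptavidin-XL665), 665/620 nm emission ratio.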

full-length human CSNK1D = biological target: T2, full-length human CSNK1D (Homo sapiens, UniProt P48730); test: CSNK1D Assay (ADP-Glo, 1 μM ATP); assay type: biochemical; settings: Table 3, read-out: CSNK1D IC50 [mol/l] (median)
T2 construct: N-terminal Glutathion-S-Transferase (GST) and full-length human CSNK1D; purchased Life Technologies PV3665; host or cells: baculovirus infected insect cells
T2 sequence (P48730 whole entry): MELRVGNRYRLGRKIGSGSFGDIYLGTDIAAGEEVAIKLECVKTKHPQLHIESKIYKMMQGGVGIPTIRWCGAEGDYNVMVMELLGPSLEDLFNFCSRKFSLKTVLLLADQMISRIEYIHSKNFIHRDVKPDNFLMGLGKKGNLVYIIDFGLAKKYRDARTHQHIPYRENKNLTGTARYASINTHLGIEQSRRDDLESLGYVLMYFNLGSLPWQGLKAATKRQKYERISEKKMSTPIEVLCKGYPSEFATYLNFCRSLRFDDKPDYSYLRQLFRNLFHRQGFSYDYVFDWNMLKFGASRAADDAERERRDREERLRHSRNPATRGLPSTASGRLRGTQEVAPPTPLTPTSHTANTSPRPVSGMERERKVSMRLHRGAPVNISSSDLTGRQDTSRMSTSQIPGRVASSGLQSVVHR
How it was run: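 Enzyme is N-terminal GST-tagged full-length human CSNK1D from baculovirus-infected insect cells (typically about 0.5 ng/μL), with a biotinylated peptide substrate and 1 μM ATP. Compound pre-incubated 15 min at 22° C in HEPES pH 7.5 buffer; ADP formed is read by ADP-Glo luminescence.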

[2] = EGFR Wildtyp 2 mM ATP IC50 [mol/l] (median), Table 4
[3] = read-out: EGFR Wildtyp 2 mM ATP IC50 [mol/l] (median), Table 4

SMILES	IC50 [1, 2]	IC50 (full-length human CSNK1D) [nM]	IC50 [1, 3] [nM]
O=C(Nc1cc(-c2[nH]c3c(O[C@H]4CCOC4)cc(F)nc3c2-c2ccccn2)ccn1)C(CC(F)F)c1ccc(F)cc1 (mixture of isomers) [Example 53, (2RS)-4,4-difluoro-N-{4-[5-fluoro-7-{[(3S)-oxolan-3-yl]oxy}-3-(pyridin-2-yl)-1H-pyrrolo[3,2-b]pyridin-2-yl]pyridin-2-yl}-2-(4-fluorophenyl)butanamide]	> 20000 nM	7.31	
O=C(Nc1cc(-c2[nH]c3c(OC[C@@H]4COCCO4)cc(F)nc3c2-c2ccccn2)ccn1)C(CC(F)F)c1ccc(F)cc1 (mixture of isomers) [Example 57, (2RS)—N-(4-{7-[(2S)-1,4-dioxan-2-ylmethoxy]-5-fluoro-3-(pyridin-2-yl)-1H-pyrrolo[3,2-b]pyridin-2-yl}pyridin-2-yl)-4,4-difluoro-2-(4-fluorophenyl)butanamide]	> 20000 nM	6.33	
O=C(Nc1cc(-c2[nH]c3c(O[C@H]4CCOC4)ncnc3c2-c2ccccn2)ccn1)C(CC(F)F)c1ccc(F)cc1 (mixture of isomers) [Example 72, (2RS)-4,4-difluoro-2-(4-fluorophenyl)-N-{4-[4-{[(3S)-oxolan-3-yl]oxy}-7-(pyridin-2-yl)-5H-pyrrolo[3,2-d]pyrimidin-6-yl]pyridin-2-yl}butanamide]	> 20000 nM	7.3	
O=C(Nc1cc(-c2[nH]c3ccc(F)nc3c2-c2ccccn2)ccn1)C(CC(F)F)c1ccc(F)cc1 (racemic) [Example 1, 4,4-difluoro-2-(4-fluorophenyl)-N-{4-[5-fluoro-3-(pyridin-2-yl)-1H-pyrrolo[3,2-b]pyridin-2-yl]pyridin-2-yl}butanamide]	> 20000 nM	15.7	
CN1CCN(c2cc(F)nc3c(-c4ccccn4)c(-c4ccnc(NC(=O)C(CC(F)F)c5ccc(F)cc5)c4)[nH]c23)CC1 (racemic) [Example 56, (2RS)-4,4-difluoro-N-{4-[5-fluoro-7-(4-methylpiperazin-1-yl)-3-(pyridin-2-yl)-1H-pyrrolo[3,2-b]pyridin-2-yl]pyridin-2-yl}-2-(4-fluorophenyl)butanamide]	> 20000 nM	6.67	
O=C(Nc1cc(-c2[nH]c3nc(F)cnc3c2-c2ccccn2)ccn1)C(CC(F)F)c1ccc(F)cc1 (racemic) [Example 60, (2RS)-4,4-difluoro-2-(4-fluorophenyl)-N-{4-[3-fluoro-7-(pyridin-2-yl)-5H-pyrrolo[2,3-b]pyrazin-6-yl]pyridin-2-yl}butanamide]	> 20000 nM	12.5	
O=C(Nc1cc(-c2[nH]c3c(OCC4CCCO4)cc(F)nc3c2-c2ccccn2)ccn1)C(CC(F)F)c1ccc(F)cc1 (racemic) [Example 61, (2RS)-4,4-difluoro-N-{4-[5-fluoro-7-{[(2RS)-oxolan-2-yl]methoxy}-3-(pyridin-2-yl)-1H-pyrrolo[3,2-b]pyridin-2-yl]pyridin-2-yl}-2-(4-fluorophenyl)butanamide]	> 20000 nM	8.79	
O=C(Nc1cc(-c2[nH]c3ncc(F)nc3c2-c2ccccn2)ccn1)C(CC(F)F)c1ccc(F)cc1 (racemic) [Example 62, (2RS)-4,4-difluoro-2-(4-fluorophenyl)-N-{4-[2-fluoro-7-(pyridin-2-yl)-5H-pyrrolo[2,3-b]pyrazin-6-yl]pyridin-2-yl}butanamide]	> 20000 nM	8.9	
O=C(Nc1cc(-c2[nH]c3ccnnc3c2-c2ccccn2)ccn1)C(CC(F)F)c1ccc(F)cc1 (racemic) [Example 65, (2RS)-4,4-difluoro-2-(4-fluorophenyl)-N-{4-[7-(pyridin-2-yl)-5H-pyrrolo[3,2-c]pyridazin-6-yl]pyridin-2-yl}butanamide]	> 20000 nM	5.62	
O=C(Nc1cc(-c2[nH]c3cc(Cl)nnc3c2-c2ccccn2)ccn1)C(CC(F)F)c1ccc(F)cc1 (racemic) [Example 68, (2RS)—N-{4-[3-chloro-7-(pyridin-2-yl)-5H-pyrrolo[3,2-c]pyridazin-6-yl]pyridin-2-yl}-4,4-difluoro-2-(4-fluorophenyl)butanamide]	> 20000 nM	14.4	
O=C(Nc1cc(-c2[nH]c3c(N4CCOCC4)cc(F)nc3c2-c2ccccn2)ccn1)C(CC(F)F)c1ccc(F)cc1 (racemic) [Example 69, (2RS)-4,4-difluoro-N-{4-[5-fluoro-7-(morpholin-4-yl)-3-(pyridin-2-yl)-1H-pyrrolo[3,2-b]pyridin-2-yl]pyridin-2-yl}-2-(4-fluorophenyl)butanamide]	> 20000 nM	9.76	
O=C(Nc1cc(-c2[nH]c3ccc(Cl)nc3c2-c2ccccn2)ccn1)C(CC(F)F)c1ccc(F)cc1 (racemic) [Example 70, (2RS)—N-{4-[5-chloro-3-(pyridin-2-yl)-1H-pyrrolo[3,2-b]pyridin-2-yl]pyridin-2-yl}-4,4-difluoro-2-(4-fluorophenyl)butanamide]	> 20000 nM	9.21	
O=C(Nc1cc(-c2[nH]c3cc(F)cnc3c2-c2ccccn2)ccn1)C(CO)c1ccc(F)cc1 (racemic) [Example 71, (2RS)—N-(4-(6-fluoro-3-(pyridin-2-yl)-1H-pyrrolo[3,2-b]pyridin-2-yl)pyridin-2-yl)-2-(4-fluorophenyl)-3-hydroxypropanamide]	> 20000 nM	12.8	
O=C(Nc1cc(-c2[nH]c3c(OCC(F)F)ncnc3c2-c2ccccn2)ccn1)C(CC(F)F)c1ccc(F)cc1 (racemic) [Example 78, (2RS)—N-{4-[4-(2,2-difluoroethoxy)-7-(pyridin-2-yl)-5H-pyrrolo[3,2-d]pyrimidin-6-yl]pyridin-2-yl}-4,4-difluoro-2-(4-fluorophenyl)butanamide]	> 20000 nM	5.15	
O=C(Nc1cc(-c2[nH]c3c(N4CCNCC4)ccnc3c2-c2ccccn2)ccn1)C(CC(F)F)c1ccc(F)cc1 (racemic) [Example 92, (2RS)-4,4-difluoro-2-(4-fluorophenyl)-N-{4-[7-(piperazin-1-yl)-3-(pyridin-2-yl)-1H-pyrrolo[3,2-b]pyridin-2-yl]pyridin-2-yl}butanamide]	> 20000 nM	6.27	
O=C(Nc1cc(-c2[nH]c3ccc(F)nc3c2-c2ccccn2)ccn1)[C@@H](CC(F)F)c1ccc(F)cc1 (single isomer, unassigned) [Example 2]	18400 nM and > 20000 nM	2.63	
O=C(Nc1cc(-c2[nH]c3c(OC[C@H]4COCCO4)cc(F)nc3c2-c2ccccn2)ccn1)C(CC(F)F)c1ccc(F)cc1 (single isomer, unassigned) [Example 51, (2R or S)—N-{4-[7-{[(2R)-1,4-dioxan-2-yl]methoxy}-5-fluoro-3-(pyridin-2-yl)-1H-pyrrolo[3,2-b]pyridin-2-yl]pyridin-2-yl}-4,4-difluoro-2-(4-fluorophenyl)butanamide]	> 20000 nM	4.1	
O=C(Nc1cc(-c2[nH]c3c(OC[C@H]4COCCO4)cc(F)nc3c2-c2ccccn2)ccn1)C(CC(F)F)c1ccc(F)cc1 (single isomer, unassigned) [Example 52, (2R or S)—N-{4-[7-{[(2R)-1,4-dioxan-2-yl]methoxy}-5-fluoro-3-(pyridin-2-yl)-1H-pyrrolo[3,2-b]pyridin-2-yl]pyridin-2-yl}-4,4-difluoro-2-(4-fluorophenyl)butanamide]		23.4	> 20000
O=C(Nc1cc(-c2[nH]c3c(O[C@H]4CCOC4)cc(F)nc3c2-c2ccccn2)ccn1)C(CC(F)F)c1ccc(F)cc1 (single isomer, unassigned) [Example 54, (2R or S)-4,4-difluoro-N-{4-[5-fluoro-7-{[(3S)-oxolan-3-yl]oxy}-3-(pyridin-2-yl)-1H-pyrrolo[3,2-b]pyridin-2-yl]pyridin-2-yl}-2-(4-fluorophenyl)butanamide]	> 20000 nM	3.7	
O=C(Nc1cc(-c2[nH]c3c(O[C@H]4CCOC4)cc(F)nc3c2-c2ccccn2)ccn1)C(CC(F)F)c1ccc(F)cc1 (single isomer, unassigned) [Example 55, (2R or S)-4,4-difluoro-N-{4-[5-fluoro-7-{[(3S)-oxolan-3-yl]oxy}-3-(pyridin-2-yl)-1H-pyrrolo[3,2-b]pyridin-2-yl]pyridin-2-yl}-2-(4-fluorophenyl)butanamide]		24.9	> 20000
O=C(Nc1cc(-c2[nH]c3c(OC[C@@H]4COCCO4)cc(F)nc3c2-c2ccccn2)ccn1)C(CC(F)F)c1ccc(F)cc1 (single isomer, unassigned) [Example 58, (2R or S)—N-{4-[7-{[(2S)-1,4-dioxan-2-yl]methoxy}-5-fluoro-3-(pyridin-2-yl)-1H-pyrrolo[3,2-b]pyridin-2-yl]pyridin-2-yl}-4,4-difluoro-2-(4-fluorophenyl)butanamide]	> 20000 nM	3.03	
O=C(Nc1cc(-c2[nH]c3c(OC[C@@H]4COCCO4)cc(F)nc3c2-c2ccccn2)ccn1)C(CC(F)F)c1ccc(F)cc1 (single isomer, unassigned) [Example 59, (2R or S)—N-{4-[7-{[(2S)-1,4-dioxan-2-yl]methoxy}-5-fluoro-3-(pyridin-2-yl)-1H-pyrrolo[3,2-b]pyridin-2-yl]pyridin-2-yl}-4,4-difluoro-2-(4-fluorophenyl)butanamide]		19.6	> 20000
